Key:
[1] = tested on: venous thrombosis; test: venous thrombosis test in rats (venous stasis under hypercoagulation with factor Xa, Wessler technique), activity via the oral route; type: in vivo, rat; details: male Wistar rats, dose 6 mg/kg, thrombosis induced 2 h after administration
Method: The antithrombotic activity of the compounds according to the invention was studied in vivo in rats by virtue of a test in which a venous thrombosis is reproduced. The venous thrombosis was induced according to the protocol described in Thromb. Haemost., 1992, 67(1), 176-179. The activity via the oral route was studied according to the procedure described below. The experiment is carried out on non-fasting male Wistar rats weighing from 250 to 280 g and divided into groups of 10 animals each. The test products are administered orally (intubation) in solution or in suspension in a methylcellulose solution (0.5% in water). The concentrations of the compounds are calculated so as to bring about the absorption of an amount of solution of 10 ml/kg orally. A thrombosis is induced at time T after the administration of the product and the thrombus formed is removed and weighed. In order to induce this thrombosis, a venous stasis is brought about under hypercoagulation, according to the technique described by Wessler (J. Applied Physiol., 1959, 943-946), using a solution of activated factor X (Xa), supplied by Biogenic (Montpellier) and comprising a dose of 7.5 nKat/kg, as hypercoagulant. The venous stasis is brought about 10 seconds exactly after the injection of the hypercoagulant. The activity of the test compounds was monitored at various doses, after they had been administered. The thrombosis was induced 2 hours after the administration of the compound. By way of example, the results of the above tests are given in the following table for a few compounds according to the invention (the activity is expressed by the percentage of inhibition of the formation of the thrombus, observed in the presence of the compound according to the invention, with respect to the weight of the thrombus formed in the absence of the compound).

| melting point | Structure (SMILES) | Activity (percentage of inhibition of the formation of the thrombus) [1] |
| --- | --- | --- |
| 134 °C | O[C@@H]1[C@@H](O)[C@H](Oc2ccccc2-c2ccncc2)SC[C@H]1O [Example 16, 2-(4-Pyridinyl)phenyl 5-thio-β-D-xylopyranoside] | – |
| 194 °C | COc1ncccc1-c1cccc(O[C@@H]2SC[C@@H](O)[C@H](O)[C@H]2O)c1 [Example 33, 3-(2-Methoxy-3-pyridinyl)phenyl 5-thio-β-D-xylopyranoside] | – |
| – | O[C@@H]1[C@@H](O)[C@H](Oc2ccc(-c3ccncc3)cc2)SC[C@H]1O [Example 8, 4-(4-Pyridinyl)phenyl-5-thio-β-D-xylopyranoside] | 91% |
| 177 °C | Cc1ccc(-c2cccc(O[C@@H]3SC[C@@H](O)[C@H](O)[C@H]3O)c2)cn1 [Example 29, 3-(6-Methyl-3-pyridinyl)phenyl 5-thio-β-D-xylopyranoside] | – |
| 195 °C | O[C@@H]1[C@@H](O)[C@H](Oc2ccccc2-c2cccnc2)SC[C@H]1O [Example 18, 2-(3-Pyridinyl)phenyl 5-thio-β-D-xylopyranoside] | – |
| 207 °C | O[C@@H]1[C@@H](O)[C@H](Oc2ccc(-c3cccnc3)cc2F)SC[C@H]1O [Example 24, 2-Fluoro-4-(3-pyridinyl)phenyl 5-thio-β-D-xylopyranoside] | – |
| – | O[C@@H]1[C@@H](O)[C@H](Oc2cc(F)ccc2-c2ccncc2)SC[C@H]1O [Example 28, 5-Fluoro-2-(4-pyridinyl)phenyl 5-thio-β-D-xylopyranoside] | 71% |
| 138 to 139 °C | O[C@@H]1[C@@H](O)[C@H](Oc2cccc(-c3ccccn3)c2)SC[C@H]1O [Example 12, 3-(2-Pyridinyl)phenyl 5-thio-β-D-xylopyranoside] | 88% |
| 197 °C | O[C@@H]1[C@@H](O)[C@H](Oc2ccc(-c3ccccn3)cc2)SC[C@H]1O [Example 10, 4-(2-Pyridinyl)phenyl 5-thio-β-D-xylopyranoside] | 86% |
| 166 °C | O[C@@H]1[C@@H](O)[C@H](Oc2ccc(-c3cccnc3)cc2)SC[C@H]1O [Example 6, 4-(3-Pyridinyl)phenyl 5-thio-β-D-xylopyranoside] | – |
| 197 °C | O[C@@H]1[C@@H](O)[C@H](Oc2cccc(-c3cccnc3)c2)SC[C@H]1O [Example 22, 3-(3-Pyridinyl)phenyl 5-thio-β-D-xylopyranoside] | 81% |
